# In PMC6160999, “Pharmacokinetics, Tissue Distribution and Excretion of a Novel Diuretic (PU-48) in Rats” (Pharmaceutics, 2018):
# “And” between values parts separate entries of the source, which are not always exact repeats. Equal values may be shown once.
# Columns and labels:
# [1] = Bile excretion in bile duct-cannulated rats; format: in vivo; details: bile duct-cannulated rat, oral PU-48 SNEDDS 12 mg/kg
# Experimental: (§1) Internal standard (IS, 25 μL) was added to 50 μL plasma, urine, or bile sample in a clean tube, placed into a water bath at 37 °C, and dried under a gentle stream of nitrogen gas, followed by the addition of 0.5 mL of ethyl acetate for liquid-liquid extraction. The mixture was shaken by a vortex mixer for 3 min, and then centrifuged at 8000 rpm (4200× g) for 10 min at 4 °C. After centrifugation, the upper organic phase was transferred into a clean centrifuge tube and then dried it again. The combined upper organic phases were evaporated to dryness at 37 °C under a gentle stream of nitrogen gas. The residue was reconstituted with 50 μL acetonitrile and then centrifuged at 13,000 rpm (12,000× g) for 10 min at 4 °C, the upper liquid was transferred into sample vials. Finally, 5 μL aliquots were injected into the LC–MS/MS system to analyze. Each tissue samples were homogenized in normal saline (0.9% NaCl, 1:3, w/v), and then centrifuged at 10,000× g for 10 min to get the supernatant. Other steps were the same as plasma sample preparation.
# (§2) Six male rats were given single orally administration of PU-48 (12 mg/kg, 1.2 mg/mL in the SNEDDS formulation) and housed in separate stainless-steel metabolism cages. Both feces and urine samples were collected at 0–1, 1–2, 2–4, 4–6, 6–8, 8–12, 12–24, 24–48, 48–72 and 72–96 h. In a separate study, bile samples were collected 0–1, 1–2, 2–4, 4–6, 6–8, 8–12, 12–24, 24–48, 48–72 and 72–96 h after oral administration of PU-48 (12 mg/kg, 1.2 mg/mL in the SNEDDS formulation) to six bile duct-cannulated rats.
# [2] = Urine and feces excretion after single oral PU-48 SNEDDS; format: in vivo; details: rat, oral PU-48 SNEDDS 12 mg/kg
# Experimental: as §1
# Feces samples were homogenized in 0.9% NaCl solution (1 g/10 mL), vortexed for 1 min and then centrifuged at 1200× g for 15 min to gather the supernatant. A volume of 25 μL of IS was added to 500 μL mixture in a clean tube, placed into a water bath at 37 °C and dried under a gentle stream of nitrogen gas, followed by the addition of 2 mL of ethyl acetate for twice liquid-liquid extraction (total 4 mL). The residue was reconstituted with 50 μL mobile phase and then 5 μL aliquots were injected into the HPLC system to analyze.
# as §2
# [3] = as above; format: in vivo; details: rat, oral PU-48 SNEDDS 12 mg/kg; remark: listed apart in the source
# [4] = parameters: method as in PMID 24055006, PMID 23728001, PMID 9124305, PMID 2671740; details: cited from earlier work
structure (smiles),measurement,setting,value
"COC(=O)c1sc2nc3ccc(OC)cc3cc2c1N [PU-48, Methyl 3-amino-6-methoxythieno [2,3-b] quinoline-2-carboxylate]","Accumulative Excretion Amount, bile",[1]; 0–1 h,78.5 ± 60.3 ng
same,"Accumulative Excretion Percentage, bile",[1]; 0–1 h,0.0027 ± 0.0021%
same,"Excretion Amount, bile",[1]; 0–1 h,78.5 ± 60.3 ng
same,PU-48 Concentration in bile,[1]; 0–1 h,143.8 ± 72.5 ng/mL
same,"Accumulative Excretion Amount, bile",[1]; 1–2 h,153.6 ± 115.5 ng
same,"Accumulative Excretion Percentage, bile",[1]; 1–2 h,0.0054 ± 0.0041%
same,"Excretion Amount, bile",[1]; 1–2 h,75.2 ± 70.3 ng
same,PU-48 Concentration in bile,[1]; 1–2 h,123.1 ± 44.3 ng/mL
same,"Accumulative Excretion Amount, bile",[1]; 2–4 h,218.9 ± 128.9 ng
same,"Accumulative Excretion Percentage, bile",[1]; 2–4 h,0.0076 ± 0.0046%
same,"Excretion Amount, bile",[1]; 2–4 h,65.3 ± 39.8 ng
same,PU-48 Concentration in bile,[1]; 2–4 h,84.7 ± 20.1 ng/mL
same,"Accumulative Excretion Percentage, bile",[1]; 4–6 h,0.0085 ± 0.0044%
same,"Excretion Amount, bile",[1]; 4–6 h,24.5 ± 14.3 ng
same,PU-48 Concentration in bile,[1]; 4–6 h,47.6 ± 19.4 ng/mL
same,"Accumulative Excretion Percentage, bile",[1]; 6–8 h,0.0091 ± 0.0042%
same,"Excretion Amount, bile",[1]; 6–8 h,18.7 ± 13.4 ng
same,PU-48 Concentration in bile,[1]; 6–8 h,41.1 ± 21.9 ng/mL
same,"Accumulative Excretion Amount, bile",[1]; 8–12 h,301.8 ± 105.8 ng
same,"Accumulative Excretion Percentage, bile",[1]; 8–12 h,0.0105 ± 0.0037%
same,"Excretion Amount, bile",[1]; 8–12 h,39.7 ± 45.9 ng
same,PU-48 Concentration in bile,[1]; 8–12 h,33.3 ± 17.4 ng/mL
same,"Accumulative Excretion Amount, bile",[1]; 12–24 h,339.9 ± 122.8 ng
same,"Accumulative Excretion Percentage, bile",[1]; 12–24 h,0.0118 ± 0.0042%
same,"Excretion Amount, bile",[1]; 12–24 h,38.1 ± 37.4 ng
same,PU-48 Concentration in bile,[1]; 12–24 h,33.4 ± 15.5 ng/mL
same,"Accumulative Excretion Amount, bile",[1]; 24–48 h,350.7 ± 124.1 ng
same,"Accumulative Excretion Percentage, bile",[1]; 24–48 h,0.0122 ± 0.0043%
same,"Excretion Amount, bile",[1]; 24–48 h,10.8 ± 3.2 ng
same,PU-48 Concentration in bile,[1]; 24–48 h,9.4 ± 5.4 ng/mL
same,"Accumulative Excretion Amount, bile",[1]; 48–72 h,355.5 ± 120.8 ng
same,"Accumulative Excretion Percentage, bile",[1]; 48–72 h,0.0123 ± 0.0042%
same,"Excretion Amount, bile",[1]; 48–72 h,4.8 ± 4.7 ng
same,PU-48 Concentration in bile,[1]; 48–72 h,5.1 ± 3.7 ng/mL
same,"Accumulative Excretion Amount, bile",[1]; 72–96 h (within 96 h),357.5 ± 120.1 ng
same,"Accumulative Excretion Percentage, bile",[1]; 72–96 h (within 96 h),0.0124 ± 0.0041% and 0.0124 ± 0.004% and 0.0124%
same,"Excretion Amount, bile",[1]; 72–96 h,2.0 ± 1.8 ng
same,PU-48 Concentration in bile,[1]; 72–96 h,1.4 ± 0.9 ng/mL
same,"Accumulative Excretion Amount, urine",[2]; 0–1 h,61.2 ± 13.4 ng
same,"Accumulative Excretion Percentage, urine",[2]; 0–1 h,0.0022 ± 0.0005%
same,"Excretion Amount, urine",[2]; 0–1 h,61.2 ± 13.4 ng
same,PU-48 Concentration in urine,[2]; 0–1 h,627.9 ± 94.1 ng/mL
same,"Accumulative Excretion Amount, feces",[2]; 0–6 h,0.1 µg
same,"Accumulative Excretion Percentage, feces",[2]; 0–6 h,0.0022%
same,"Excretion Amount, feces",[2]; 0–6 h,0.1 µg
same,PU-48 Concentration in feces,[2]; 0–6 h,0.1 µg/mL
same,"Accumulative Excretion Amount, urine",[2]; 1–2 h,131.8 ± 37.9 ng
same,"Accumulative Excretion Percentage, urine",[2]; 1–2 h,0.0047 ± 0.0015%
same,"Excretion Amount, urine",[2]; 1–2 h,80.8 ± 41.0 ng
same,PU-48 Concentration in urine,[2]; 1–2 h,376.3 ± 184.2 ng/mL
same,"Accumulative Excretion Amount, urine",[2]; 2–4 h,203.6 ± 48.4 ng
same,"Accumulative Excretion Percentage, urine",[2]; 2–4 h,0.0073 ± 0.0018%
same,"Excretion Amount, urine",[2]; 2–4 h,107.7 ± 30.0 ng
same,PU-48 Concentration in urine,[2]; 2–4 h,97.3 ± 20.1 ng/mL
same,"Accumulative Excretion Amount, urine",[2]; 4–6 h,345.3 ± 107.2 ng
same,"Accumulative Excretion Percentage, urine",[2]; 4–6 h,0.0123 ± 0.0038%
same,"Excretion Amount, urine",[2]; 4–6 h,141.7 ± 78.0 ng
same,PU-48 Concentration in urine,[2]; 4–6 h,156.3 ± 65.6 ng/mL
same,"Accumulative Excretion Amount, feces",[2]; 6–8 h,0.4 µg
same,"Accumulative Excretion Percentage, feces",[2]; 6–8 h,0.0128%
same,"Excretion Amount, feces",[2]; 6–8 h,0.4 µg
same,PU-48 Concentration in feces,[2]; 6–8 h,0.4 µg/mL
same,"Accumulative Excretion Amount, urine",[2]; 6–12 h,496.4 ± 129.9 ng
same,"Accumulative Excretion Percentage, urine",[2]; 6–12 h,0.0178 ± 0.0048%
same,"Excretion Amount, urine",[2]; 6–12 h,151.1 ± 94.8 ng
same,PU-48 Concentration in urine,[2]; 6–12 h,83.6 ± 56.6 ng/mL
same,"Accumulative Excretion Amount, feces",[2]; 8–12 h,12.5 ± 14.6 µg
same,"Accumulative Excretion Percentage, feces",[2]; 8–12 h,0.44 ± 0.51%
same,"Excretion Amount, feces",[2]; 8–12 h,12.5 ± 14.5 µg
same,PU-48 Concentration in feces,[2]; 8–12 h,6.9 ± 6.5 µg/mL
same,"Accumulative Excretion Amount, feces",[2]; 12–24 h,31.5 ± 21.4 µg
same,"Accumulative Excretion Amount, urine",[2]; 12–24 h,850.7 ± 589.4 ng
same,"Accumulative Excretion Percentage, feces",[2]; 12–24 h,1.11 ± 0.73%
same,"Accumulative Excretion Percentage, urine",[2]; 12–24 h,0.0306 ± 0.0216%
same,"Excretion Amount, feces",[2]; 12–24 h,19.0 ± 11.3 µg
same,"Excretion Amount, urine",[2]; 12–24 h,354.3 ± 485.8 ng
same,PU-48 Concentration in feces,[2]; 12–24 h,9.4 ± 5.3 µg/mL
same,PU-48 Concentration in urine,[2]; 12–24 h,65.3 ± 94.6 ng/mL
same,"Accumulative Excretion Percentage, urine",[2]; 24–36 h,0.0380 ± 0.0250%
same,"Excretion Amount, urine",[2]; 24–36 h,207.5 ± 123.7 ng
same,PU-48 Concentration in urine,[2]; 24–36 h,45.0 ± 36.9 ng/mL
same,"Accumulative Excretion Amount, feces",[2]; 24–48 h,41.0 ± 21.7 µg
same,"Accumulative Excretion Percentage, feces",[2]; 24–48 h,1.45 ± 0.74%
same,"Excretion Amount, feces",[2]; 24–48 h,9.5 ± 9.5 µg
same,PU-48 Concentration in feces,[2]; 24–48 h,1.8 ± 1.9 µg/mL
same,"Excretion Amount, urine",[2]; 36–48 h,158.4 ± 125.3 ng
same,PU-48 Concentration in urine,[2]; 36–48 h,25.6 ± 27.4 ng/mL
same,"Accumulative Excretion Amount, feces",[2]; 48–72 h,44.3 ± 22.1 µg
same,"Accumulative Excretion Amount, urine",[2]; 48–72 h,1319.8 ± 734.0 ng
same,"Accumulative Excretion Percentage, feces",[2]; 48–72 h,1.56 ± 0.75%
same,"Accumulative Excretion Percentage, urine",[2]; 48–72 h,0.0473 ± 0.0267%
same,"Excretion Amount, feces",[2]; 48–72 h,3.2 ± 4.4 µg
same,"Excretion Amount, urine",[2]; 48–72 h,103.2 ± 94.5 ng
same,PU-48 Concentration in feces,[2]; 48–72 h,0.5 ± 0.7 µg/mL
same,PU-48 Concentration in urine,[2]; 48–72 h,7.5 ± 5.9 ng/mL
same,"Accumulative Excretion Amount, urine",[2]; 72-96 h (within 96 h),1458.5 ± 733.1 ng
same,"Accumulative Excretion Percentage, urine",[2]; 72-96 h (within 96 h),0.0523 ± 0.0267% and 0.052 ± 0.0267% and 0.052%
same,"Excretion Amount, urine",[2]; 72-96 h,138.7 ± 101.2 ng
same,PU-48 Concentration in urine,[2]; 72-96 h,9.0 ± 5.4 ng/mL
same,"Accumulative Excretion Amount, feces",[2]; 72–96 h (within 96 h),45.5 ± 22.0 µg
same,"Accumulative Excretion Percentage, feces",[2]; 72–96 h (within 96 h),1.61 ± 0.74% and 1.60%
same,"Excretion Amount, feces",[2]; 72–96 h,1.2 ± 1.4 µg
same,PU-48 Concentration in feces,[2]; 72–96 h,0.2 ± 0.2 µg/mL
same,"Total excretion of PU-48 parent drug in the urine, feces, and bile",[2]; within 96 h,less than 2%
same,"Accumulative Excretion Amount, urine",[3]; 24–36 h,1058.2 ± 684.1 ng
same,"Accumulative Excretion Amount, urine",[3]; 36–48 h,1216.6 ± 716.3 ng
same,"Accumulative Excretion Percentage, urine",[3]; 36–48 h,0.0436 ± 0.0261%
same,"Serum levels of sodium, chloride, or potassium",[4],did not change
